# Source: patent publication US12233060B2, “Inhibitors of Ataxia-Telangiectasia Mutated and Rad3-related protein kinase (ATR) for use in methods of treating cancer” (THE INSTITUTE OF CANCER RESEARCH: ROYAL CANCER HOSPITAL, priority 2016, dated 2025)
# Key:
# [1] = test system: HCT116 ARID1A isogenic (+/+ and −/−) cell lines; assay: Clonogenic survival of ARID1A isogenic cells; assay type: cell-based, human
# Protocol: FIG. 2. In vitro ARID1A/ATR synthetic lethality. A. Chemical structure of VX-970. B. Western blot of ARID1A in human ARID1A isogenic HCT116 cells. C. Image of colonies in 6 well-plate clonogenic assay. HCT116 ARID1A isogenic (^+/+ and ^−/−) cell lines were exposed to increasing concentrations of the VE-821 (0, 0.1, 1 uM) and VX-970 (0, 0.01, 0.05 uM) for 14 days. D and E. Dose response clonogenic survival curve of HCT116 ARID1A isogenic (^+/+ and ^−/−) cell lines exposed to increasing concentrations of the VE-821 and VX-970 for 14 days. Error bars represent SD from triplicate experiments, ANOVA p-value of <0.0001. F. Area under curve (AUC) box whisker comparison plot for human tumor cell lines exposed to VX-970 for five days. ARID1A wild type tumor cell lines (n=15) were compared to ARID1A mutant cell lines (n=9). Student's t-test p=0.00594. G. Dose response clonogenic survival curve of mouse Arid1a isogenic ES cell lines. Experiment was performed as per (C). Error bars represent SD from triplicate experiments, ANOVA p value of <0.0001. H. Western blot of Arid1a protein expression in mouse ES Arid1a isogenic cells. I. Z score box whisker comparison plot for 86 human tumor cell lines transfected with ATR siRNA. Cells lines were transfected with siRNA and cell viability was estimated five days later by Cell Titre Glo reagent.
# Short-term survival assays were performed in 384-well plates. Exponentially growing cells were plated at a concentration of 500 cells/well. Drug was added 24 h after seeding and cells were continuously exposed to the drug for five days, after which cell viability was estimated using CellTitre-Glo luminescence (Promega). For clonogenic assays, cells were seeded in 6-well plates (500 cells/well) and continuously exposed to drug 24!h after seeding for 14 days. Media containing fresh drug was replaced every 72 hours. Cells were fixed with 10% trichloroacetic acid and stained with sulphorhodamine B (Sigma-Aldrich, Gillingham, UK). Colonies were counted manually. All cell-based assays were performed at least in triplicate.
# [2] = test system: TOV21G (ARID1A mutant) and RMG1 (ARID1A wildtype) cells; assay: Five-day dose response in OCCC cell lines TOV21G and RMG1; assay type: cell-based, human; conditions: 5 days exposure
# Protocol: FIG. 3. In vivo ARID1A/ATR synthetic lethality. A. Schematic of VX-970 therapy experiment in mice bearing established HCT116 ARID1A^+/+ and ARID1A^−/− xenografts. Cells were inoculated subcutaneously into nude mice and tumors allowed to establish for 10 days. Mice were then randomized to treatment regimens of either VX-970 (60 mg/kg, 4× weekly by oral gavage) or vehicle. Mice were then treated for a subsequent 40 days. Tumor volume was monitored twice weekly. B. Relative tumor volume plot from (A) showing efficacy of VX-970 and selectivity for ARID1A^−/− xenografts* p=0.024, ANOVA. C. Schematic of tumor incidence experiment in mice with non-established HCT116 ARID1A^+/+ and ARID1A^−/− xenografts. Mice were inoculated with cells as before, randomized and then treated with VX-970. […] Tumor volume was monitored twice weekly and overall tumour incidence was assessed 40 days later. […] PARP-1, cleaved PARP-1 (85 kDa fragment) and tubulin were detected by western blot. […] Caspase3/7 activity was assessed using Caspase-Glo and total cellular viability was estimated using CellTitre-Glo. Luminescence ratios for Caspase-Glo (i.e. apoptotic cells) and CellTitre-Glo (ie viable cells) was determined for each dose and normalized to DMSO treated samples. *Student's t-test, p<0.05. […]
# Short-term survival assays were performed in 384-well plates. […] Colonies were counted manually. […]
# HCC1143 and HeLa cells = assay: Surviving fraction after five days VX-970 with SMARCA4 or ARID1A siRNA; assay type: cell-based, human; conditions: five days exposure
# Protocol: FIG. 6. BAF complex deficiency causes sensitivity to ATR inhibition. A. Schematic of BAF complex composition in human cells. B. VX-970 dose response curves from HCT116 cells transfected with siRNA targeting ARID1B or SMARCA4. 48 hours after transfection cells were exposed to VX-970 for 5 days. Error bars represent SD from triplicate experiments. p<0.0001, ANOVA for siARID1B and siSMARCA4 vs. siCON. C. Western blots illustrating ARID1B and SMARCA4 silencing in experiment (B). D. VX-970 dose response curves from four OCCC cell lines, 3 SMARCA4 wildtype (blue; RMG1, KK and ES2) and 1 SMARCA4 mutant (red; TOV112D). E. Bar chart illustrating surviving fraction after five days VX-970 exposure in HCC1143 and He1a cells transfected with siRNA targeting either SMARCA4 or ARID1A *p<0.05 by Student's t-test compared to siCon. F. Western blot illustrating level of chromatin bound TOP2A in HCT116 cells transfected siRNA targeting ARID1A, ARID1B or SMARCA4. Cells were analysed 48 hours after transfection. G. A model for the proposed mechanism driving the sensitivity of ARID1A-deficient cells to ATRi. Loss of function genomic alterations to ARID1A (or ARID1B/SMARCA4) lead to dysfunction of the BAF complex. This in turn causes decreased binding of TOP2A to chromatin, reducing the efficiency of chromosomal decatenation. […]
# [3] = test system: synovial sarcoma PDX SA13412; assay: Synovial sarcoma patient-derived xenograft treatment; assay type: in vivo, mice
compound,measurement,setting,value
"CNCc1ccc(-c2cc(-c3nc(-c4ccc(S(=O)(=O)C(C)C)cc4)cnc3N)on2)cc1 [VX-970, 5-[4-(Isopropylsulfonyl)phenyl]-3-(3-{4-[(methylamino)methyl]phenyl}-1,2-oxazol-5-yl)-2-pyrazinamine]",ARID1A−/− selectivity compared with PARP inhibitors or cisplatin,[1],greater than for other proposed ARID1A-targeted agents
same,sensitivity of TOV21G vs RMG1,[2],more sensitive to both VE-821 and VX-970
same,VX-970 sensitivity caused by SMARCA4 silencing vs ARID1A siRNA,HCC1143 and HeLa cells,comparable to that caused by ARID1A siRNA
same,tumour growth in PDX SA13412,"[3]; established PDX, ANOVA p<0.0001",inhibition of tumour growth
same,survival time of PDX-bearing mice,[3]; log rank Mantel p=0.026,increase in survival time
